Data reported in paper PMC7144380 (Molecules, 2020).
Read-outs that look alike come from different tables or passages of the source.

Assays:
[1] = target: T1, µ-opioid receptor (MOR), rat (Rattus norvegicus, UniProt P33535); type: binding; details: read-out: Ki ± S.E.M. (nM) / [^3H]DAMGO (μ) ^1
T1 construct: gene Oprm1; native receptor in rat brain membrane homogenate or rat vas deferens

[2] = target: T1, µ-opioid receptor (MOR), rat; test: […]GTPγS binding, rat brain membranes; type: biochemical; details: read-out: EC50 ± S.E.M.; agonist; pH 7.4, 30 °C, 60 min, 30 µM GDP; mixed opioid receptors in tissue, assigned to MOR by the authors
MOR, mouse vas deferens = target: T2, MOR, mouse vas deferens (Mus musculus, UniProt P42866); details: read-out: EC50 ± S.E.M. (nM) / MVD
T2 construct: gene Oprm1; native receptor in isolated mouse vas deferens

[3] = target: T3, κ-opioid receptor (KOR), guinea pig (Cavia porcellus, UniProt P41144); test: [3H]U-69593 competition, guinea pig brain membranes; type: binding; details: 50 mM Tris-HCl pH 7.4, 30 °C, 30 min; unreliable (partial displacement)
T3 construct: gene OPRK1; native receptor in guinea pig brain membrane homogenate
From the text: [3H]U-69593 competition, guinea pig brain membranes on κ-opioid receptor (KOR), guinea pig

[4] = target: T4, δ-opioid receptor (DOR), rat (Rattus norvegicus, UniProt P33533); test: [3H]Ile5,6-deltorphin II competition, rat brain membranes; type: binding; details: read-out: Ki ± S.E.M. (nM) / [^3H]IleDelt II (δ) ^1; 50 mM Tris-HCl pH 7.4, 35 °C, 45 min; Cheng-Prusoff
T4 construct: gene Oprd1; native receptor in rat brain membrane homogenate

[5] = target: T4, δ-opioid receptor (DOR), rat; test: as above; type: binding; details: 50 mM Tris-HCl pH 7.4, 35 °C, 45 min; unreliable (incomplete displacement)
[6] = target: T4, δ-opioid receptor (DOR), rat; test: […]GTPγS binding, rat brain membranes; type: biochemical; details: agonist; pH 7.4, 30 °C, 60 min, 30 µM GDP

COc1ccc2c3c1O[C@H]1[C@@H](OS(=O)(=O)O)C=C[C@@]4(OC)[C@@H](C2)N(C)CC[C@]314 [14-methoxycodeine-6-O-sulfate]
Ki [1]: 3.37 ± 0.48 nM | EC50 [2]: 301 ± 197 nM | EC50 (MOR, mouse vas deferens): 239 ± 6.15 nM | Ki ± S.E.M. (nM) / [^3H]U-69593 (κ) ^2 [3]: 245.57 ± 215.01 nM | Ki [4]: 346 ± 133 nM

COc1ccc2c3c1O[C@H]1[C@@H](OS(=O)(=O)O)C=C[C@H]4[C@@H](C2)N(C)CC[C@@]341 [codeine-6-O-sulfate]
Ki ([1]; 50 mM Tris-HCl pH 7.4, 35 °C, 45 min, Cheng-Prusoff): 96.9 ± 20.3 nM | EC50 (MOR, mouse vas deferens; agonist, Mg2+-free Krebs, 31 °C, MOR assigned by naloxone Ke): > 1000 nM | Ki ± S.E.M. (nM) / [^3H]IleDelt II (δ) ^1 [5]: 968.28 ± 471.38 nM

CC(C)[C@H](NC(=O)[C@H](CCC(=O)O)NC(=O)[C@H](Cc1ccccc1)NC(=O)[C@@H](C)NC(=O)[C@@H](N)Cc1ccc(O)cc1)C(=O)N[C@H](C(=O)NCC(N)=O)C(C)C [deltorphin II]
EC50 [6]: 44.4 ± 23.5 nM
